Data on three compounds can be found in article PMC4666645 (PLoS Pathogens, 2015).

For one assay, the system named is native C. elegans L-AChR. The settings on record: cited from earlier work.
Assay [1] concerns the target T1, Hco-L-AChR-2 (Hco-UNC-38, Hco-UNC-63, Hco-UNC-29.1) (Haemonchus contortus, UniProt D6MYE9+D6MYF3+D6MYF4).
T1 sequence (D6MYF3 20-512): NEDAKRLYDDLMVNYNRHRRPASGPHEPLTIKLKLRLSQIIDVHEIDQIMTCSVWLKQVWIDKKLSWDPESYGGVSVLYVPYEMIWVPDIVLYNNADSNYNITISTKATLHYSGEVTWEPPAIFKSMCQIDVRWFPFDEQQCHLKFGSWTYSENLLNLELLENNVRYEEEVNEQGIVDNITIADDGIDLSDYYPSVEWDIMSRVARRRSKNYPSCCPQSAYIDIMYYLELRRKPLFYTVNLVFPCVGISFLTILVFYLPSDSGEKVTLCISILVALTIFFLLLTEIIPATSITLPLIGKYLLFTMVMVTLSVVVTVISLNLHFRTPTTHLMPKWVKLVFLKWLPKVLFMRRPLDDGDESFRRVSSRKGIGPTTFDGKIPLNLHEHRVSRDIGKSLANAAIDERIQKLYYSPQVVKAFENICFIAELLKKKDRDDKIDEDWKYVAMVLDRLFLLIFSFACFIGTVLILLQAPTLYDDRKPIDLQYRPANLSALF
T1 sequence (D6MYF4 22-504): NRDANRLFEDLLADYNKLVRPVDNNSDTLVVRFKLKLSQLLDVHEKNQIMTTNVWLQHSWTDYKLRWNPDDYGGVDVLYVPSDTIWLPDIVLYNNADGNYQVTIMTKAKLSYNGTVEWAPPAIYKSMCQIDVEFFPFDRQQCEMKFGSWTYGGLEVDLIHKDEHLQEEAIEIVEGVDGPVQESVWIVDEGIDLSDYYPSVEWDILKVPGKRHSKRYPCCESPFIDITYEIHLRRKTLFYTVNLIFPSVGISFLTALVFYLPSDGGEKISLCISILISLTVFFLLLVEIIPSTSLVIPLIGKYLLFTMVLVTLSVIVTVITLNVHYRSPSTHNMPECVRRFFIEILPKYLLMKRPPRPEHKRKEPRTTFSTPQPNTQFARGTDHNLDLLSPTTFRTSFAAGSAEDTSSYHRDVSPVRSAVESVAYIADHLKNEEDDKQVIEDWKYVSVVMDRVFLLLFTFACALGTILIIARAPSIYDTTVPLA
T1 sequence (D6MYE9 21-498): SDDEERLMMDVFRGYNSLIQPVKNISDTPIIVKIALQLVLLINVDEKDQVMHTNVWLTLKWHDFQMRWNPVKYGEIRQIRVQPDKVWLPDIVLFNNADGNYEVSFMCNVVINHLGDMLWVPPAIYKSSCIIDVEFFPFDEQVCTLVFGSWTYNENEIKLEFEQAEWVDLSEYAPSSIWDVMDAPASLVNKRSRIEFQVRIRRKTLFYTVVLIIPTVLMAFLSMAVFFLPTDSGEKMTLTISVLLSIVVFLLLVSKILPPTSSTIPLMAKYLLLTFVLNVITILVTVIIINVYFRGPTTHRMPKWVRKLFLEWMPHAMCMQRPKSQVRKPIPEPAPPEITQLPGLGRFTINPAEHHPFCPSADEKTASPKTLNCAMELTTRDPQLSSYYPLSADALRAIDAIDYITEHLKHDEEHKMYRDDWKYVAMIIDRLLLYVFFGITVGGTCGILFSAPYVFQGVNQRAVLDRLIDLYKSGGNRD
The experiment in a line: Two-electrode voltage-clamp on Xenopus oocytes expressing Hco-L-AChR-2. In kind it is cell-based. The settings on record: for Response to agonist: 100 μM agonist. From the text: H. contortus and P. equorum acr-26 and acr-27 cDNAs were PCR-amplified using primers containing a restriction site in order to be sub-cloned into the expression vector pTB207 that is suitable for in vitro transcription. Primers are listed in S3 Table. The resulting plasmids were linearized with the NheI restriction enzyme (Fermantas) and used as templates for cRNA synthesis using the T7 mMessage mMachine kit (Ambion). Xenopus laevis ovaries were obtained from the University of Rennes, France (CRB Xenope) and defolliculated using 2 mg/ml collagenase type II (Gibco) in the incubation solution containing: 100 mM NaCl, 2 mM KCl, 1.8 mM CaCl2.2H2O, 1 mM MgCl2.6H2O, 5 mM HEPES, 2.5 mM C3H3NaO3, pH 7.5, supplemented with penicillin 100 U/mL and streptomycin 100 μg/mL). The oocytes were injected in the animal pole with a total volume of 36 nL of cRNA mix containing 50 ng/μL of each cRNA in RNase-free water using the Drummond nanoject II microinjector. Microinjected oocytes were kept at 20°C in incubation medium for 4 days to allow the receptors expression. Two-electrode voltage-clamp recordings were carried out using an Oocyte Clamp OC-725C amplifier (Warner instrument) in oocytes being voltage-clamped at -60mV. All agonist preparations were prepared with recording buffer (100 mM NaCl, 2.5 mM KCl, 1 mM CaCl2.2H2O, 5 mM HEPES, pH 7.3). Currents were recorded and analyzed using the pCLAMP 10.4 package (Molecular Devices).
Supplementary file ppat.1005267.s003.tif: S3 Fig Pharmacological profiles of Hco-L-AChR-1 and Hco-L-AChR-2. […] The bars indicate the time period of the agonist application. Functional expression of Hco-L-AChR-1 requires the co-expression of Hco-UNC-38; Hco-UNC-63; Hco-UNC-29.1 and Hco-ACR-8 AChR subunits with the ancillary proteins Hco-RIC-3.1; Hco-UNC-50 and Hco-UNC-74 whereas Hco-L-AChR-2 requires the co-expression of Hco-UNC-38; Hco-UNC-63 and Hco-UNC-29.1 AChR subunits with the ancillary proteins Hco-RIC-3.1; Hco-UNC-50 and Hco-UNC-74. (C) Scatter plot (mean ± SEM) of normalized currents elicited by 100 μM Mor on Hco-26/27, Hco-L-AChR-1 and Hco-L-AChR-2. […]
On the technique in general: Two-electrode voltage clamp is typically applied to oocytes expressing channels or transporters.

Counter-ions that a name gives are not always drawn.

On to `c1ccc([C@H]2CN3CCSC3=N2)cc1` [Lev, (-)-tetramisole hydrochloride], for which, in the assay on native C. elegans L-AChR, the EC50 is 10 µM.

Consider `Cc1ccsc1/C=C/C1=NCCCN1C` [Mor, morantel], for which, in assay [1], the EC50 came to 3.2 ± 1.2 µM and the “Response to agonist” value is “less activated”.

In the case of `CN1CCCN=C1/C=C/c1cccs1` [Pyr, pyrantel], the “Response to agonist” value in assay [1] is listed as “highly responsive”.

The EC50 is the concentration at which the effect is half-maximal.
